Measured values: US6576620B2, “Method of identifying partial adenosine A1 receptor agonists” (CV Therapeutics, Inc., priority 1999, dated 2003)
Entries after “also recorded” stand apart in the source; their conditions may differ.

Tested on: guinea pig isolated heart
Assay: A-V nodal conduction time / S-H interval, isolated perfused heart
Conditions: for second-degree AV block: CPA at 30 nM, Compound 6 at all tested concentrations; for concentration causing an increase of the S-H interval by 13 msec: comparable submaximal responses
Procedure: This method evaluates the potencies of compounds to cause coronary vasodilation (A2A AdoR response) and to prolong A-V nodal conduction time (A1 AdoR response).
Rats and guinea pigs, of either sex weighing from 230 to 260 grams and 300 to 350 grams, respectively, were used in this study. Animals were anesthetized by peritoneal injection of a cocktail containing ketamine and xylazine (ketamine 100 mg, xylazine 20 mg/ml). The chest was opened and the heart quickly removed. The heart was briefly rinse in ice-cold Krebs-Henseleit solution (see below), and the aorta cannulated. The heart was then perfused at a flow rate of 10 ml/min with modified Krebs-Henseleit (K-H) solution containing NaCl 117.9, KCl 4.5, CaCl2 2.5, MgSO4 1.18, KH2PO4 1.18, pyruvate 2.0 mmol. The K-H solution (pH 7.4) was gassed continuously with 95% O2 and 5% CO2 and warmed to 35±0.50° C. The heart was electrically paced at a fixed cycle length of […] (250 beats/min) using a bipolar electrode place on the left atrium. The electrical stimuli were generated by a Grass stimulator (Model S48, W. Warwick, R.I.) and delivered through a Stimuli Isolation Unit (Model SIU5, Astro-Med, Inc., NY) as square-wave pulses of 3-msec in duration and amplitude of at least twice the threshold intensity.
A1 adenosine receptor-mediated depression of A-V nodal conduction time (negative dromotropic effect) was measured. Atrial and ventricular surface electrograms in rats and His bundle electrogram in guinea pigs, were recorded during constant atrial pacing.
The effects of compounds on coronary conductance (A2A effect) and atrioventricular conduction time or stimulus-to-His-bundle (S-H) interval (A1 effect) was then determined. Hearts were instrumented for continuous recording of coronary perfusion pressure (A2A response) and atrioventricular (A-V) conduction time or S-H interval (A1 response). In each experiment, concentration-response relationship of compounds to increase coronary conductance and to prolong A-V conduction time or S-H interval was determined. After control measurements of CPP and A-V conduction time or S-H interval were made, progressive higher concentrations of the compound studied was administered until maximal coronary vasodilation and A-V nodal conduction time or S-H interval prolongation were achieved.
Guinea pigs (Hartley) of either sex weighing 300-350 g were anaesthetized with methoxyflurane and killed by decapitation. The chest was cut open and the heart was removed quickly and rinsed in ice-cold modified Krebs-Henseleit (K-H) solution. The contents of the modified K-H solution were (in mM): NaCl 117.9, KCl 4.8, CaCl2 2.5, MgSO2 1.18, KH2PO4 1.2, Na2 EDTA 0.5, ascorbic acid 0.14, dextrose 5.5, pyruvic acid (sodium salt) 2.0, and NaHCO3 25. The K-H solution was continuously gassed with 95% oxygen and 5% CO2, and the pH was adjusted to a value of 7.4. To perfuse the heart by the Langendorff method, the transected aorta was slid onto a glass cannula and secured by a ligature. Retrograde perfusion of the aorta was initiated immediately at a constant flow of 10 ml min-′ with modified K-H solution warmed to 36.0±0.5° C. A side port in the cannula was used to connect the perfusion line to a Gould pressure transducer for measurement of coronary perfusion pressure. Coronary perfusion pressure was continuously recorded on a strip chart (Gould RS3400, Cleveland, Ohio) throughout each experiment. Coronary conductance (in ml min^−1 mmHg^−1) was calculated as the ratio of coronary flow (10 ml min^−1) to perfusion pressure (mm Hg). To facilitate the exit of fluid from the left ventricle, the leaflets of the mitral valve were trimmed with fine spring-handled scissors. When appropriate, hearts were paced at a constant rate using external electrodes. […]

| SMILES | S-H interval (CPA 30 nM, control 44±1 msec) | S-H interval (CPA 10 μM as printed, control 42±1 msec) | S-H interval (CPA 15 μM as printed, control 42±1 msec) | S-H interval (CPA 20 μM as printed, control 42±1 msec) | second-degree AV block | S-H interval Efficacy (Table 5, 2759 = CVT-2759) | concentration causing an increase of the S-H interval by 13 msec | concentration at which effect on S-H interval reached a maximum | antagonism of S-H interval prolongation induced by CPA (10 μM compound) | increase of the S-H interval (10 μM compound) | increase of the S-H interval (10 μM compound in the presence of 50 nM CPX) | decrease of S-H interval (10 μM compound in the presence of iodotubercidin and EHNA) | S-H interval (10 μM compound in the presence of iodotubercidin and EHNA (80±6 msec before)) | S-H interval (10 μM compound, control 46±2 msec) | EC50 (Cavia porcellus, electrically paced heart, read-out: EC50 to increase the S-H interval) | S-H interval at maximum effect (control 45±1 msec) | maximum increase of S-H interval (electrically paced heart) | adenosine concentration causing second-degree AV block (presence of 4 μM Compound 6 of Example 2) | adenosine concentration causing second-degree AV block (presence of 10 μM Compound 6 of Example 2) |
| --- | --- | --- | --- | --- | --- | --- | --- | --- | --- | --- | --- | --- | --- | --- | --- | --- | --- | --- | --- |
| OC[C@H]1O[C@@H](n2cnc3c(NC4CCCC4)ncnc32)[C@H](O)[C@@H]1O [CPA, N^6-cyclopentyladenosine, reference compound] | 87 ± 2 ms | 59 ± 4 ms | 81 ± 6 ms | 103 ± 8 ms | second-degree AV block occurred in all hearts; also recorded: caused second-degree AV block in all hearts | Full (Potent) | 10 nM | – | – | – | – | – | – | – | – | – | – | – | – |
| CNC(=O)OC[C@H]1OC(n2cnc3c(N[C@@H]4CCOC4)ncnc32)[C@H](O)[C@@H]1O (stereo partly drawn) [Compound 6 of Example 2, [(5-{6-[((3R)oxolan-3-yl)amino]purin-9-yl}(3 S,2R,4R)-3,4-dihydroxyoxolan-2-yl)methoxy]-N-methylcarboxamide] | – | – | – | – | did not cause second-degree A-V block in any heart | – | 10,000 nM | 30 to 100 µM | partially reversed the S-H interval prolongation induced by CPA | 12 ms | 4 ms | 16 ms | 64 ± 2 ms | 58 ± 2 ms | 3.1 µM | 60 ± 3 ms | 33% | 8 µM | 20 µM |
